# Source: patent US9316631B1, “ER-stress inducing compounds and methods of use thereof” (Whitehead Institute for Biomedical Research, priority 2012, dated 2016)
# Where two headings read alike, the source gives them in different places.
# Legend:
# [1] = system: UPR signaling in HMLER_shGFP and HMLER_Twist cells; experiment: UPR signaling (Western blot, XBP1 RT-PCR, ATF6 reporter, qPCR); format: cell-based, human
# Method: (A) Expression of UPR pathway components in HMLER_shGFP and HMLER_Twist cells that were treated with Dev2, Cmp302, Dev4 or DMSO solvent for 6 h. Western blot analysis for phospho-eIF2α, total eIF2α, CHOP and β-Tubulin. RT-PCR analysis of XBP1 and XBP1 splice variant and GAPDH transcripts.
# (D) Western blot analysis of HMLER_shGFP and HMLER_Twist cells treated with vehicle (DMSO), DTT or A23187 for 4 h and probed for p-eIF2α, total eIF2α, CHOP and β-Tubulin (loading control). RT-PCR analysis of XBP1 and XBP1 splice variant and GAPDH transcripts.
# (E) Western blot analysis of HMLER_shGFP and HMLER_Twist cells treated with vehicle (DMSO), Tunicamycin or Thapsigargin for 4 h and probed for p-eIF2α, total eIF2α, CHOP and β-Tubulin (loading control). RT-PCR analysis of XBP1 and XBP1 splice variant and GAPDH transcripts.
# Reporter activity for each cell line was normalized relative to DMSO treatment.
# BIP expression was normalized relative to GAPDH for each sample.
# (C) ATF6 activation of HMLER_shGFP and HMLER_Twist cells in response to Tunicamycin, Thapsigargin, DTT and A23187 were measured by ATF6 reporter assay. Reporter activity for each cell line was normalized relative to DMSO treatment.
# (D) qPCR analysis for BIP expression in HMLER_shGFP and HMLER_Twist cells treated with Thapsigargin and DTT. BIP expression was normalized relative to GAPDH for each sample.
# (E) qPCR analysis for expression of GADD34 in HMLER_shGFP and HMLER_Twist cells treated with Thapsigargin and DTT. GADD34 expression was normalized relative to GAPDH for each sample.
# Western blotting was performed as previously described (Gupta et al., 2009). Antibodies used for immunoblotting were as follows: E-cadherin (BD Transduction), Fibronectin (Abcam), Actin, Cytokeratin 8/18, PERK, eIF2α, peIF2α, CHOP, Caspase-3 and Bip (Cell Signal Technology).
# p5xATF6-GL3 and hRluc constructs were obtained from Addgene (plasmids 11976 and 24348, provided by Drs. Ron Prywes and Liqun Luo, resp.). 24 hours after co-transfection of 0.3 μg p5xATF6-GL3 and 0.05 μg hRluc plasmids, cells were treated with indicated compounds for another 6 hours, and ATF6 activity was measured by a dual luciferase assay (Promega).
# [2] = system: IDMS cells (HMLE_shEcad, HMLE_Twist) versus control HMLE_shGFP cells; experiment: Dose-response cell survival, ATP-based luminescence assay, HMLE cells; parameters: species or system human; conditions: for killing of IDMS cells relative to control HMLE cells: 3 days, FIG. 3B, 3C
# Method: (B) Dose response curves of HMLE_shGFP, HMLE_shEcad and HMLE_Twist cells treated with various concentrations of Cmp302, Cmp308 and Dev4, respectively for 3 days. Cell survival was determined using an ATP-based luminescence assay.
# (B) Dose-response curves of HMLE_shGFP, HMLE_shEcad and HMLE_Twist cells treated with various concentrations of Thapsigargin, DTT and A23187 for 3 days. Cell survival was determined using an ATP-based luminescence assay.
# (B) Dose-response curves indicating viability of Dev2-treated cell lines
# (§1) Cells (3000/well) were plated in 100 μl per well in 96-well plates. One day (24 hr) after seeding, compounds were added in 8 different doses at three replicates per dose for each cell line. Cell viability was measured after 72 hr with the CellTiter-Glo […] Assay (Promega). Paclitaxel, Doxorubicin, Tunicamycin, Thapsigargin, A23187 and DTT were purchased from Sigma Aldrich. Cmp302 and Cmp308 were purchased from Biointerscreen.
# [3] = system: SUM159 cancer cells; experiment: Transwell migration of pretreated SUM159 cells; format: cell-based, human; conditions: 5 h migration
# Method: (B) Representative images of crystal violet staining of SUM159 cells following transwell migration assay. Transwell migration assay was performed on SUM159 cancer cells treated as in (A). Cells that have migrated for 5 h following seeding into 8 μm pore inserts were visualize and quantified. Scale bar: 50 μm
# (§2) To determine whether chemical ER perturbants could abrogate the malignancy of IDMS cells, SUM159 cancer cells (derived from a primary anaplastic Basal-B breast carcinoma) were treated with tunicamycin, thapsigargin or paclitaxel at their respective IC75 doses. Cells were then allowed to recover in the absence of treatment prior to subjecting them to functional assays for IDMS-related phenotypes.
# [4] = system: SUM159 cancer cells; experiment: Tumorsphere formation of pretreated SUM159 cells; format: cell-based, human; conditions: pretreatment 3 days (1 μg/ml Tunicamycin, 10 nM Thapsigargin), 3 days recovery
# Method: (A) Representative brightfield images and quantification of tumorsphere formation of SUM159 cancer cells treated with 5 nM Paclitaxel, 1 μg/ml Tunicamycin, 10 nM Thapsigargin, or DMSO vehicle for 3 days followed by another 3 days of recovery in regular medium. Scale bar: 50 μm
# Mammosphere formation assays were performed as described (Dontu et al., 2003), but with 0.6% methylcellulose (Stem Cell Technologies). Five thousand cells were plated per well in low-adherence 24-well plates and cultured for 5-8 days prior to being counted and photographed.
# as §2
# [5] = system: protein secretion of SUM159 cells; experiment: 35S-methionine/cysteine labeling of secreted proteins, pretreated SUM159 cells; format: cell-based, human; conditions: pretreatment 3 days, recovery 3 days
# Method: (B) Autoradiograph showing ^35S-methionine/cysteine-labeled secreted proteins in SUM159 cells that were pretreated with 1 μg/ml Tunicamycin, 10 nM Thapsigargin, 0.1 μM A23187 or DMSO vehicle for 3 days and allowed to recover in the absence of chemical for 3 days prior to the ^35S-methionine/cysteine labeling.
# (§3) Equal numbers of cells were cultured in the presence of ^35S-methionine/cysteine in medium with reduced methionine/cysteine content and minimal serum. At the indicated timepoints, aliquots of medium were extracted for analysis. Medium was centrifuged at 800×g for 2 min to pellet any whole cell contaminants. Equal volume of medium was reduced in loading buffer, separated by SDS-PAGE and analyzed by autoradiography.
# [6] = system: SUM159 cells; experiment: Dose-response of pretreated SUM159 cells to paclitaxel or doxorubicin; format: cell-based, human; conditions: pretreated SUM159, then paclitaxel or doxorubicin 3 days; FIG. 7D
# Method: (D) Dose-response curves of SUM159 cells pre-treated as in (C) and then treated with 8 doses of paclitaxel or doxorubicin for 3 days. Cell survival was determined using an ATP-based luminescence assay.
# as §1
# [7] = system: HMLE_Twist_GFP / HMLE_shEcad_GFP cells mixed 1:1 with HMLE_shGFP_dsRed cells; experiment: Co-culture of GFP-labeled IDMS cells with dsRed-labeled control epithelial cells; format: cell-based, human; conditions: 1:1 co-culture, 5 days treatment; FIGS. 1D and E
# Method: (D) Representative fluorescence images of HMLE_shGFP_dsRed and HMLE_Twist_GFP cells were mixed in a 1:1 ratio and treated with 5 nM Paclitaxel, 2 μM Cmp302, 2 μM Cmp308 or DMSO control. Images after 5 days of treatment are shown. Scale bar: 50 μm
# (E) Quantification of HMLE_shGFP_dsRed and HMLE_shEcad_GFP cells that were mixed in a 1:1 ratio and treated with Doxorubicin or Dev4. Following a 5 day treatment, the percentages of dsRed-positive and GFP-positive cells were quantified by FACS.
# Even though Cmp302 and Cmp308 were selective for IDMS cells when cultured alone, tumors are comprised of heterogeneous populations of cells that could affect the sensitivity or selectivity of the applied chemicals. Therefore GFP-labeled IDMS cells were co-cultured with dsRed-labeled control epithelial cells and then applied Cmp302 and Cmp308.
# [8] = system: HMLER_shGFP and HMLER_Twist cells; experiment: Viability with thapsigargin in presence or absence of salubrinal; format: cell-based, human; conditions: 10 μM salubrinal, 3 days; FIG. 6F
# Method: (F) Relative viability of HMLER_shGFP and HMLER_Twist cells treated with increasing doses of thapsigargin in the presence or absence of 10 μM salubrinal for 3 days. Cell viability was assayed with an ATP-based luminescence assay.
# as §1
# [9] = system: protein secretion of HMLE cells; experiment: 35S-methionine/cysteine labeling of secreted proteins, HMLE cells; format: cell-based, human; conditions: control experiment; data not shown
# Method: (F) Autoradiograph showing ^35S-methionine/cysteine-labeled secreted proteins in IDMS (HMLE_shEcad, HMLE_Twist) and control (HMLE_shGFP) cells. Secreted proteins were harvested at the indicated time points. Quantification of signal in each lane is provided in arbitrary units. The indicated proteins were identified by mass-spectrometry.
# as §3
# To determine whether overall protein secretion was elevated in IDMS cells, total protein synthesis and secretion was measured using ^35S-methionine/cysteine. Labeled proteins secreted by cells into the culture medium (“secretome”) were visualized by gel electrophoresis and autoradiography. After three hours of ^35S-methionine/cysteine labeling, we observed a 9.6-fold and 13.7-fold increase in the secretome of IDMS cells (HMLE_shEcad and HMLE_Twist, resp.) relative to the control epithelial cells (FIG. 4F).
# [10] = system: MDA-MB-157 cells; experiment: Dose-response cell survival of MDA-MB-157 cells in suspension versus adherent culture; format: cell-based, human; conditions: 3 days; FIG. 1I
# Method: (I) Dose-response curves of MDA-MB-157 cells cultured in adherent or suspension conditions and treated with 8 doses of paclitaxel, Cmp302 or Cmp308 for 3 days. Cell survival was determined using an ATP-based luminescence assay.
# as §1
# Next, it was determined whether the preferential toxicity of these compounds was unique to the oncogenic modifications of the HMLE breast epithelial cell system. Accordingly, a model was developed in which human breast carcinoma cells progressed towards the IDMS state in the absence of genetic modifications by altering their extracellular contextual signals. […] However, this line adopts an IDMS state when detached from its substratum and cultured in suspension (FIG. 1F). […] This morphologic alteration was accompanied by upregulation of mesenchymal markers (fibronectin) and downregulation of epithelial proteins (cytokeratin 8/18 and E-cadherin) (FIG. 1G). […]
# [11] = system: MDA-MB-157 cells (CD44hiCD24lo and CD44loCD24hi fractions); experiment: Flow cytometry of CD44/CD24 fractions of treated MDA-MB-157 cells; format: cell-based, human; conditions: suspension, 36 h; FIG. 1J
# Method: (J) MDA-MB-157 cells were treated with Cmp308, paclitaxel or DMSO solvent in suspension for 36 h and analyzed by flow cytometry for CD44 and CD24 expression. The percentage of CD44^hiCD24^lo and CD44^loCD24^hi cells in were quantified and normalized relative to DMSO controls.
# FACS analysis was performed according to the manufacturer's protocol (BD Biosciences). Reagents used in FACS were as follows: APC-conjugated anti-CD44 antibody (clone G44-26), PE-conjugated anti-CD24 antibody (clone ML5), and propidium iodide (5 μg/ml) (BD Bioscience).
# [12] = 6 h treatment (Cmp302, Dev4, Dev2) or 4 h (DTT, A23187, tunicamycin, thapsigargin), IDMS versus non-IDMS cells
compound,measurement,setting,value
"O[C@H](CS)[C@H](O)CS (racemic) [DTT, dithiothreitol]","UPR signaling (XBP1 splicing, eIF2α phosphorylation, ATF6 activation)",[1]; [12],selectively induced
same,killing of IDMS cells relative to control HMLE cells,[2],selective lethality
C/C=C(/C)C(=O)O[C@H]1C(C)=C2[C@H]([C@@H]1OC(=O)CCCCCCC)[C@@](C)(OC(C)=O)C[C@H](OC(=O)CCC)[C@@]1(O)[C@H]2OC(=O)[C@@]1(C)O [thapsigargin],migratory ability relative to paclitaxel-pretreated cells,[3],strongly impaired
same,"UPR signaling (XBP1 splicing, eIF2α phosphorylation, ATF6 activation)",[1]; [12],selectively induced
same,tumorsphere-forming ability relative to paclitaxel- or DMSO-treated cells,[4],significantly reduced
same,protein secretion relative to paclitaxel- and DMSO-treated cells,[5],strongly inhibited
same,killing of IDMS cells relative to control HMLE cells,[2],selective lethality
same,sensitization of pretreated cells to chemotherapy,[6],sensitized SUM159 cells to paclitaxel and doxorubicin
CNc1ccc2oc(C[C@H]3O[C@@]4(CC[C@H]3C)O[C@H]([C@H](C)C(=O)c3ccc[nH]3)[C@H](C)C[C@H]4C)nc2c1C(=O)O [A23187],"UPR signaling (XBP1 splicing, eIF2α phosphorylation, ATF6 activation)",[1],selectively induced
same,killing of IDMS cells relative to control HMLE cells,[2],selective lethality
COc1cccc2c1C(=O)c1c(O)c3c(c(O)c1C2=O)C[C@@](O)(C(=O)CO)C[C@@H]3O[C@H]1C[C@H](N)[C@H](O)[C@H](C)O1 [doxorubicin],effect on IDMS cells in mixed populations,[7],selective expansion of IDMS cells
"O=C(/C=C/c1ccccc1)NC(NC(=S)Nc1cccc2cccnc12)C(Cl)(Cl)Cl (centres unmarked) [Salubrinal, salubrinal]",sensitization to thapsigargin treatment,[8],"further sensitized HMLER-Twist IDMS, but not control cells"
tunicamycin,migratory ability relative to paclitaxel-pretreated cells,[3],strongly impaired
same,"UPR signaling (XBP1 splicing, eIF2α phosphorylation, ATF6 activation)",[1]; [12],more readily induced in IDMS cells
same,dose required for UPR induction relative to toxic dose,"[1]; IDMS cells, FIG. 3E",100 fold
same,tumorsphere-forming ability relative to paclitaxel- or DMSO-treated cells,[4],significantly reduced
same,protein secretion relative to paclitaxel- and DMSO-treated cells,[5],strongly inhibited
same,IC50 (toxicity),"[2]; both IDMS and control HMLE cells, data not shown",< 10^−10 g/ml
same,sensitization of pretreated cells to chemotherapy,[6],sensitized SUM159 cells to paclitaxel and doxorubicin
"C[C@H]1CCC/C=C/[C@@H]2C[C@H](O)C[C@H]2[C@H](O)/C=C/C(=O)O1 [Brefeldin-A, Brefeldin A]",protein secretion,[9],completely abolished protein secretion
CC(=O)O[C@H]1C(=O)[C@@]2(C)[C@H]([C@H](OC(=O)c3ccccc3)[C@]3(O)C[C@H](OC(=O)[C@H](O)[C@@H](NC(=O)c4ccccc4)c4ccccc4)C(C)=C1C3(C)C)[C@]1(OC(C)=O)CO[C@@H]1C[C@@H]2O [paclitaxel],toxicity towards IDMS MDA-MB-157 cells in suspension relative to non-IDMS cells in adherent conditions,[10],decreased toxicity
same,preferential toxicity towards CD44hiCD24lo versus CD44loCD24hi fraction,[11],did not exhibit this preferential toxicity
same,effect on IDMS cells in mixed populations,[7],selective expansion of IDMS cells
